Columns and labels:
[1] = test system: ECHCG; test: Post-emergence herbicidal action against ECHCG; assay type: in vivo, Echinochloa crus-galli
Procedure: (§1) Seeds of monocotyledonous and dicotyledonous weed and crop plants are laid out in sandy loam soil in wood-fiber pots, covered with soil and cultivated in a greenhouse under good growth conditions. 2 to 3 weeks after sowing, the test plants are treated at the one-leaf stage. The compounds of the invention, formulated in the form of wettable powders (WP) or as emulsion concentrates (EC), are then sprayed onto the green parts of the plants in the form of an aqueous suspension or emulsion at a water application rate equivalent to 600 to 800 l/ha, with addition of 0.2% wetting agent. After the test plants have been left to stand in the greenhouse under optimal growth conditions for about 3 weeks, the action of the preparations is assessed visually in comparison to untreated controls (herbicidal action in percent (%): 100% activity=the plants have died, 0% activity=like control plants). […] The tables below illustrate, in an illustrative manner, the post-emergence herbicidal action of the compounds of the invention, the herbicidal activity being stated in percent.

[2] = test system: AMARE; test: Pre-emergence herbicidal action against AMARE; assay type: in vivo, Amaranthus retroflexus
Description: (§2) Seeds of monocotyledonous and dicotyledonous weed plants and crop plants are laid out in sandy loam soil in wood-fiber pots and covered with soil. The compounds of the invention, formulated in the form of wettable powders (WP) or as emulsion concentrates (EC), are then applied to the surface of the covering soil in the form of an aqueous suspension or emulsion at a water application rate equivalent to 600 to 800 l/ha, with addition of 0.2% wetting agent. After the treatment, the pots are placed in a greenhouse and kept under good growth conditions for the trial plants. The damage to the test plants is scored visually after a test period of 3 weeks by comparison with untreated controls (herbicidal activity in percent (%): 100% activity=the plants have died, 0% activity=like control plants). […] The tables below illustrate, in an illustrative manner, the post-emergence herbicidal action of the compounds of the invention, the herbicidal activity being stated in percent.

[3] = test system: AMARE; test: Post-emergence herbicidal action against AMARE; assay type: in vivo, Amaranthus retroflexus; conditions: 20 g/ha, visual assessment about 3 weeks after treatment, 100% = plants have died, 0% = like control plants
Procedure: as §1

[4] = test system: MATIN; test: Pre-emergence herbicidal action against MATIN; assay type: in vivo, Matricaria inodora
Description: as §2

[5] = test system: SETVI; test: Pre-emergence herbicidal action against SETVI; assay type: in vivo, Setaria viridis; conditions: dosage 80 g/ha
Description: as §2

[6] = test system: ECHCG; test: Pre-emergence herbicidal action against ECHCG; assay type: in vivo, Echinochloa crus-galli; conditions: 80 g/ha
Description: as §2

[7] = test system: ABUTH; test: Post-emergence herbicidal action against ABUTH; assay type: in vivo, Abutilon theophrasti; conditions: visual assessment about 3 weeks after treatment vs untreated controls
Procedure: as §1

[8] = test system: SETVI; test: Post-emergence herbicidal action against SETVI; assay type: in vivo, Setaria viridis
Procedure: as §1

[9] = test system: DIGSA; test: Post-emergence herbicidal action against DIGSA; assay type: in vivo, Digitaria sanguinalis; conditions: for Post-emergence action against DIGSA in %: 5 g/ha; for Post-emergence action against DIGSA: 20 g/ha
Procedure: as §1

[10] = test system: DIGSA; test: Pre-emergence herbicidal action against DIGSA; assay type: in vivo, Digitaria sanguinalis
Description: as §2

[11] = test system: ABUTH; test: Pre-emergence herbicidal action against ABUTH; assay type: in vivo, Abutilon theophrasti; conditions: for Pre-emergence action against ABUTH (herbicidal activity): 80 g/ha, scored visually after 3 weeks vs untreated controls (100% = plants have died, 0% = like control plants)
Description: as §2

[12] = test system: VIOTR; test: Pre-emergence herbicidal action against VIOTR; assay type: in vivo, Viola tricolor; conditions: dosage 80 g/ha
Description: as §2

[13] = test system: AVEFA; test: Pre-emergence herbicidal action against AVEFA; assay type: in vivo, Avena fatua; conditions: 80 g/ha, pre-emergence
Description: as §2

[14] = test system: ALOMY; test: Pre-emergence herbicidal action against ALOMY; assay type: in vivo, Alopecurus myosuroides; conditions: 80 g/ha, pre-emergence, scored visually after 3 weeks vs untreated controls (100% = plants have died, 0% = like control plants)
Description: as §2

[15] = test system: VIOTR; test: Post-emergence herbicidal action against VIOTR; assay type: in vivo, Viola tricolor; conditions: 20 g/ha
Procedure: as §1

[16] = 20 g/ha, scored visually after 3 weeks vs untreated controls, 100% = plants have died, 0% = like control plants
[17] = 80 g/ha, scored visually after 3 weeks vs untreated controls (100% = plants have died, 0% = like control plants)

SMILES	Post-emergence action against ECHCG in % ([1]; dosage 20 g/ha)	Pre-emergence action against AMARE in % [2, 16]	Pre-emergence action against AMARE in % [2, 17]	Post-emergence action at 20 g/ha against AMARE in % [3]	Pre-emergence action against MATIN in % ([4]; dosage 80 g/ha)	Pre-emergence action against SETVI in % [5]	Pre-emergence action against ECHCG in % [6]	Post-emergence action against ABUTH in % ([7]; dosage 20 g/ha)	Post-emergence action against SETVI in % ([8]; dosage 20 g/ha)	Post-emergence action against DIGSA in % [9]	Post-emergence action against DIGSA [9]	Pre-emergence action against DIGSA in % ([10]; dosage 20 g/ha)	Pre-emergence action against DIGSA in % ([10]; dosage 80 g/ha)	Pre-emergence action against ABUTH (herbicidal activity) [11]	Pre-emergence action against VIOTR in % [12]	Pre-emergence action against MATIN in % ([4]; dosage 20 g/ha)	further results
CCNC(=O)c1c(C(F)(F)F)ccc(C(=O)Nc2nnc(C)o2)c1OC [Example 6-44]	90%	80%	100%	90%	80%	90%	100%	80%	80%	80%	90%						
COc1c(C(=O)Nc2nnc(C)o2)ccc(C(F)(F)F)c1C(=O)NC1CC1 [Example 6-45]	90%	80%	100%	80%	90%	100%	80%	90%	100%	90%	90%	90%	100%	90%	90%		Post-emergence action against ABUTH in % ([7]; dosage 5 g/ha): 80%
CCNC(=O)c1c(C(F)F)ccc(C(=O)Nc2nnc(C)o2)c1SC [Example 6-75]											90%		80%				
Cc1nnc(NC(=O)c2ccc(C(F)F)c(C(=O)NCC(F)(F)F)c2Br)o1 [Example 6-168]	80%	90%	100%	100%	90%	90%	90%							100%		80%	Post-emergence action against ECHCG in % ([1]; dosage 5 g/ha): 80%; Pre-emergence action against AVEFA in % [13]: 80%; Pre-emergence action against ALOMY (herbicidal activity) [14]: 80%
CCc1c(C(=O)Nc2nnc(C)o2)ccc(C(F)(F)F)c1C(=O)NC [Example 6-210]	80%		100%	100%	90%	100%	90%	90%	100%	90%	90%	100%	100%	100%	90%	80%	Post-emergence action against VIOTR in % [15]: 80%; Post-emergence action against SETVI in % ([8]; dosage 5 g/ha): 90%
Cc1nnc(NC(=O)c2ccc(C(F)F)c(C(=O)NC3CCC3)c2Cl)o1 [Example 6-261]	90%	100%	100%	90%	100%	100%	100%	80%			90%	80%	100%	100%		90%	Pre-emergence action against ABUTH (herbicidal activity in percent) ([11]; dosage 20 g/ha, scored visually after 3 weeks vs untreated controls, 100% = plants have died, 0% = like control plants): 80%
COCCNC(=O)c1c(C(F)F)ccc(C(=O)Nc2nnc(C)o2)c1Cl [Example 6-262]	80%	90%	100%	90%	100%	100%	90%	90%	80%		90%	100%	100%	100%	90%		Post-emergence action against ABUTH in % ([7]; dosage 5 g/ha): 80%
